# Results: publication PMC3116189, “Novel Natural Inhibitors of CYP1A2 Identified by in Silico and in Vitro Screening” (International Journal of Molecular Sciences, 2011)
# Entries after “also recorded” stand apart in the source; their conditions may differ.
# Molecular target: T1, CYP1A2 (Homo sapiens, UniProt P05177)
# T1 sequence (P05177 1-516): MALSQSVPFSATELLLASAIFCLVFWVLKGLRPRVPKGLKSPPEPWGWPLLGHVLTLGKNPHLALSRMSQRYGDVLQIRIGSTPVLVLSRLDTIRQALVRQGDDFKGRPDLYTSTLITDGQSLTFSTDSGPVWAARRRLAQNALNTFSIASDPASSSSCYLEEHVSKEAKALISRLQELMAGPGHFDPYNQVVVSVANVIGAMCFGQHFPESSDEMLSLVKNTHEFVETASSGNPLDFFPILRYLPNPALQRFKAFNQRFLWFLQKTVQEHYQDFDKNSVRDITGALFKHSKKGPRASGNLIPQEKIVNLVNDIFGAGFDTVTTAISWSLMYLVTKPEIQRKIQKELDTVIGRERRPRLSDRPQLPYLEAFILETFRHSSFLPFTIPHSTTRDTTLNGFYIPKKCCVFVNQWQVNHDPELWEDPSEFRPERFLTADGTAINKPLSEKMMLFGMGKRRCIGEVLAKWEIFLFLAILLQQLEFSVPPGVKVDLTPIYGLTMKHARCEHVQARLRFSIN
# Assay: in vitro
# Assay type: biochemical
# Details: 1 μM active ingredient, Rh CYP1A2-mediated phenacetin O-deethylation, test dataset of 202 herb ingredients
# 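Also: recombinant CYP1A2 incubated for 1 h at 37 °C, with the reaction started by an NADPH-generating system.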
row,Compound,% of Control Indication Activity (Mean) [%]
1,COC[C@]12CN(C)[C@@H]3[C@@H]4[C@H](OC)[C@H]1[C@@]3([C@@H](OC)C[C@H]2O)[C@@H]1C[C@@]2(O)[C@H](OC(=O)c3ccccc3)[C@@H]1[C@]4(OC(C)=O)[C@@H](O)[C@@H]2OC [Mesaconitine],> 90
2,C[C@@H]1O[C@@H](O[C@@H]2[C@@H](O)[C@H](O)[C@@H](CO)O[C@H]2c2c(O)cc(O)c3c(=O)cc(-c4ccc(O)cc4)oc23)[C@H](O)[C@H](O)[C@H]1O [Vitexin rhamnoside],> 90
3,Ginkgolide B,> 90
4,CCOC(=O)/C=C/c1ccc(O)c(O)c1 [Caffeic acid ethyl ester],> 90
5,Echinacoside,> 90
6,Rhodiosin,> 90
7,Veratramin,> 90
8,COc1cc2c(cc1O)CC[n+]1cc3c(OC)c(OC)ccc3cc1-2.[Cl-] [Jatrorrhizine Hydrochloride],> 90
9,Lobetyolin,> 90
10,COc1cc2c(cc1OC)[C@@H](Cc1ccc(O)c(Oc3cc4c(cc3OC)CCN(C)[C@@H]4Cc3ccc(O)cc3)c1)N(C)CC2 [Liensinine],> 90
11,O=C1CCC[C@@H]2[C@H]3CCC[N@+]4([O-])CCC[C@@H](CN12)[C@@H]34 [Ammothamnine],> 90
12,COc1ccc(-c2cc(=O)c3c(O)cc(O[C@@H]4O[C@H](CO[C@@H]5O[C@@H](C)[C@H](O)[C@@H](O)[C@H]5O)[C@@H](O)[C@H](O)[C@H]4O)cc3o2)cc1 [Linarin],> 90
13,COc1ccc(-c2oc3cc(OC)c(OC)c(O)c3c(=O)c2OC)cc1O [Vitexicarpin],> 90

# Same assay, conditions: 1 μM test compound, 25 μM phenacetin, average of duplicate determinations
row,Compound,% of Control Indication Activity [%]
1,"OC[C@H]1O[C@@H](Oc2cc(O)cc(/C=C/c3ccc(O)cc3)c2)[C@H](O)[C@@H](O)[C@@H]1O [zhang 713, Piceid]",>90

# Same assay, conditions: 1 μM test concentration; listed as 284
row,Compound,inhibitory activity to CYP1A2 (10% or greater inhibition at 1 μM)
1,"COc1cc(C[C@H]2COC(=O)[C@@H]2Cc2ccc(O)c(OC)c2)ccc1O [zhang 284, (−)-Matairesinol]",found to have inhibition of CYP1A2 activity; also recorded: confirmed to have inhibitory activities to CYP1A2

# Same assay, conditions: human, recombinant enzyme, pH 7.4
row,Compound,"activity at 1 h, 1 μM [%]"
1,C=C1CC[C@H]2C(=C)CC[C@H]3C(=C)C(=O)O[C@@H]3[C@@H]12 [Dehydrocostus lactone],> 90
2,Cc1cc(O)c2c(c1)C(=O)c1cc(O)cc(O)c1C2=O [Emodin],> 90
3,COc1ccc2ccc(=O)oc2c1CC=C(C)C [Osthole],86.8
4,O=c1ccc2cc(O)c(O)cc2o1 [Esculetin],> 90
5,O=C(O)c1cc(O)c(O)c(O)c1 [Gallic acid],> 90
6,O=c1c(O[C@@H]2O[C@H](CO)[C@H](O)[C@H](O)[C@H]2O)c(-c2ccc(O)c(O)c2)oc2cc(O)cc(O)c12 [Hyperoside],> 90
7,C[C@@H]1O[C@@H](Oc2cc(O)c3c(=O)c(O)c(-c4ccc(O)cc4)oc3c2O)[C@H](O)[C@H](O)[C@H]1O [Rhodionin],> 90
8,O=c1c(-c2ccc(O)cc2)coc2c([C@@H]3O[C@H](CO)[C@@H](O)[C@H](O)[C@H]3O)c(O)ccc12 [Puerarin],> 90
9,COc1ccc2cc1Oc1ccc(cc1)C[C@H]1c3cc(c(OC)cc3CCN1C)Oc1c(OC)c(OC)cc3c1[C@H](C2)N(C)CC3 [Tetrandrine],> 90
10,OC[C@H]1O[C@@H](OCCc2ccc(O)cc2)[C@H](O)[C@@H](O)[C@@H]1O [Salidroside],> 90
11,C[C@@H]1O[C@@H](OC[C@H]2O[C@@H](Oc3c(-c4ccc(O)c(O)c4)oc4cc(O)cc(O)c4c3=O)[C@H](O)[C@@H](O)[C@@H]2O)[C@H](O)[C@H](O)[C@H]1O [Rutin],> 90
12,C=CCc1ccc(O)c(-c2ccc(O)c(CC=C)c2)c1 [Honokiol],33.6
13,O=C1C[C@@H](c2ccc(O[C@@H]3O[C@H](CO)[C@@H](O)[C@H](O)[C@H]3O)cc2)Oc2cc(O)ccc21 [Liquiritin],> 90
14,O=c1c(-c2ccc(O)cc2)coc2cc(O)ccc12 [Daidzein],> 90
15,O=c1cc(-c2ccccc2)oc2cc(O)cc(O)c12 [Chrysin],4.6
16,"O=Cc1ccc(O)c(O)c1 [3,4-Dihydroxybenzaldehyde]",> 90
17,"COc1cc(O)c2c(=O)cc(-c3ccc(O)c(O)c3)oc2c1 [zhang 272, 3′-hydroxy-Genkwanin]",< 90

# Same assay, conditions: human, recombinant enzyme, pH 7.4; 1 μM active ingredient, Rh CYP1A2-mediated phenacetin O-deethylation, test dataset of 202 herb ingredients; read-out: % of Control Indication Activity (Mean)
row,Compound,"activity at 1 h, 1 μM [%]"
1,COc1cc2c[n+](C)c3c4cc5c(cc4ccc3c2cc1OC)OCO5 [Nitidine],> 90

# Same assay, conditions: human, recombinant human CYP1A2, pH 7.4, probe phenacetin (25 μM), O-deethylation to acetaminophen; 1 μM active ingredient, Rh CYP1A2-mediated phenacetin O-deethylation, test dataset of 202 herb ingredients; read-out: % of Control Indication Activity (Mean)
row,Compound,"activity at 1 h, 1 μM [%]"
1,C[C@]1(OC(=O)/C=C/c2ccccc2)C[C@@H](O)[C@]2(O)C=CO[C@@H](O[C@@H]3O[C@H](CO)[C@@H](O)[C@H](O)[C@H]3O)[C@@H]21 [Harpagoside],> 90
2,O=c1c(O)c(-c2ccc(O)c(O)c2)oc2cc(O)cc(O)c12 [Quercetin],> 90
3,COc1cc(/C=C/C(=O)CC(=O)/C=C/c2ccc(O)c(OC)c2)ccc1O [Curcumin],> 90
4,O=Cc1ccc(CO)o1 [5-Hydroxymethylfurfural],> 90
5,COc1c(O)cc(O)c2c(=O)cc(-c3ccccc3)oc12 [Wogonin],74.6
6,CC1=C2C(=O)O[C@@H](c3ccoc3)[C@]2(C)CCC1 [Fraxinellone],> 90
7,CC12CCC(CC1)C(C)(C)O2 [Eucalyptol],> 90
8,COc1cc2c(c(OC)c1OC)-c1c(cc(OC)c(OC)c1OC)C[C@](C)(O)[C@@H](C)C2 [Schizandrin],> 90
9,C=C1C(=O)O[C@@H]2/C=C(\C)CC/C=C(\C)CC[C@@H]12 [Costunolide],> 90
10,CC1CCC(C(C)C)C(O)C1 (stereo not drawn) [Menthol],> 90
11,COc1cc(-c2coc3cc4c(c(OC)c3c2=O)OCO4)cc(OC)c1OC [Irisflorentin],> 90
12,O=C(O)c1cc(O)c2c(c1)C(=O)c1cccc(O)c1C2=O [Rhein],> 90
13,OC[C@H]1O[C@@H](O[C@@H]2OC=C[C@H]3[C@H](O)[C@@H]4O[C@]4(CO)[C@@H]23)[C@H](O)[C@@H](O)[C@@H]1O [Catalpo l],> 90
14,O=C(O)[C@H]1O[C@@H](Oc2cc3oc(-c4ccc(O)cc4)cc(=O)c3c(O)c2O)[C@H](O)[C@@H](O)[C@@H]1O [Scutellarin],> 90
15,C[C@@]1(CO)C[C@@H](O)C[C@@]2(C)[C@@H]3CC[C@](C)([C@@H](O)CO)C=C3CC[C@H]12 [Kirenol],> 90
16,C[N+](C)(C)CC(=O)O [Betaine],> 90
17,COC(=O)C1=CC[C@@]23CC[C@@H]([C@@](C)(/C=C/C=C(\C)C(=O)O)OC2=O)[C@@]3(OC(C)=O)CC1 [Pseudolaric acid B],> 90
18,COc1c(O)cc2c(c1O)[C@@H]1O[C@H](CO)[C@@H](O)[C@H](O)[C@H]1OC2=O [Bergenin],> 90
19,O=C(O)/C=C/c1ccc(O)c(O)c1 [Caffeic acid],> 90
20,COc1ccc(/C=C/C(=O)O)cc1O [Isoferulic acid],> 90

# Same assay, conditions: human, recombinant human CYP1A2, pH 7.4, probe phenacetin (25 μM), O-deethylation to acetaminophen; 1 μM test compound, 25 μM phenacetin, average of duplicate determinations; read-out: % of Control Indication Activity
row,Compound,"activity at 1 h, 1 μM [%]"
1,"COc1cc(O)c2c(=O)c(O[C@@H]3O[C@H](CO)[C@@H](O)[C@H](O)[C@H]3O)c(-c3ccc(O)c(O)c3)oc2c1 [zhang 84, rhamnetin 3-O-β-D-glucopyranoside]",> 90
2,"COc1ccc(-c2oc3cc(O)cc(O)c3c(=O)c2OC)cc1OC [zhang 759, 3,3′,4′-Tri-Me ether-3,3′,4′,5,7-Pentahydroxyflavone]",> 90
3,"O=c1c(OC2OC(CO)C(O)C2O)c(-c2ccc(O)c(O)c2)oc2cc(O)cc(O)c12 [zhang 206, quercetin-3-O-α-D-arabinofuranose]",> 90
4,"COc1cc(C[C@H]2COC(=O)[C@@H]2Cc2ccc(O)c(OC)c2)ccc1O [zhang 284, (−)-Matairesinol]",< 90

# Same assay, conditions: recombinant enzyme
row,Compound,% of Control Indication Activity (Mean)
1,C=C1CC[C@@H]2[C@](C)(CO)[C@H](O)CC[C@@]2(C)[C@@H]1/C=C/C1=CCOC1=O [Dehydroandrographolide],> 90
2,COc1cc2ccc(=O)oc2c(OC)c1O [Isofraxidin],> 90

# Same assay, conditions: recombinant enzyme, pH 7.4; 1 μM active ingredient, Rh CYP1A2-mediated phenacetin O-deethylation, test dataset of 202 herb ingredients; read-out: % of Control Indication Activity (Mean)
Compound,"activity at 1 h, 1 μM [%]",activity [%]
COc1cccc2c1cc([N+](=O)[O-])c1c(C(=O)O)cc3c(c12)OCO3 [Aristolochic Acid],> 90,
O=C(/C=C/C=C/c1ccc2c(c1)OCO2)N1CCCCC1 [Piperine],> 90,
C[C@@H]1O[C@@H](Oc2c(-c3ccc(O)c(O)c3)oc3cc(O)cc(O)c3c2=O)[C@H](O)[C@H](O)[C@H]1O [Quercitrin],,> 90
COC(=O)C1=CO[C@@H](O[C@@H]2O[C@H](CO)[C@@H](O)[C@H](O)[C@H]2O)[C@@H]2C(CO)=CC[C@H]12 [Geniposide],,> 90
